These are literature values, as cited in PubChem BioAssay AID1259410 (Chemical Carcinogenesis Research Information System (CCRIS), 2018).

The subject of this data set is rodent tumor promotion studies, tumor incidence. The data set is described as follows: CCRIS tumor promotion studies.

As for `Cc1cc(C(C)(C)C)c(O)c(C(C)(C)C)c1`, the outcome runs as follows: (Carcinogen: 2-(ACETYLAMINO)FLUORINE, Doses [Carcinogen]: 200 PPM IN DIET FOR 8 WK, Doses [Promoter]: 300, 1000, 3000, 6000 PPM IN DIET FOR 22 WK AFTER INITIATION FOR 8 WK, Doses [Promoter]: 300, 1000, 3000, 6000 PPM IN DIET FOR 22 WK AFTER INITIATION FOR 8 WK, Route [Carcinogen]: ORAL, Route [Promoter]: ORAL, Species: RAT, Strain/Sex: F344/MALE) “liver: neoplastic nodule, hepatocellular carcinoma”; (Carcinogen: 2-(ACETYLAMINO)FLUORINE, Doses [Carcinogen]: DIET, Doses [Promoter]: IN DIET, Route [Carcinogen]: ORAL, Route [Promoter]: ORAL, Species: RAT, Strain/Sex: MALE) “liver”; (Carcinogen: 3,2'-DIMETHYL-4-AMINOBIPHENYL, 13394-86-0, Doses [Carcinogen]: 50 MG/KG IN CORN OIL 1/WK FOR 10 WK, Doses [Promoter]: 0, 1 ADMINISTERED TO 4 WK OLD RATS IN DIET FOR 11 WK BEGINNING 1 WK PRIOR TO CARCINOGEN (STUDY DURATION: 55 WK), Route [Carcinogen]: SUBCUTANEOUS, Route [Promoter]: ORAL, Species: RAT, Strain/Sex: F344/MALE) “bladder: carcinoma, papilloma”; (Carcinogen: 3-METHYLCHOLANTHRENE, 56-49-5, Doses [Carcinogen]: 10, 15, 25 UG/G ONCE, Doses [Carcinogen]: 10, 15, 25 UG/G ONCE, Doses [Promoter]: 0, 200 MG/KG 1/WK FOR 6 WK (STUDY DURATION: 20 WK), Route [Carcinogen]: INTRAPERITONEAL, Route [Promoter]: INTRAPERITONEAL, Species: MOUSE, Strain/Sex: BALB/CBYJ/FEMALE) “lung: tumor”; (Carcinogen: 3-METHYLCHOLANTHRENE, 56-49-5, Doses [Carcinogen]: 10 UG/G ONCE, Doses [Promoter]: 0, 200 MG/KG 1/WK FOR 6 WK (STUDY DURATION: 20 WK), Route [Carcinogen]: INTRAPERITONEAL, Route [Promoter]: INTRAPERITONEAL, Species: MOUSE, Strain/Sex: BALB/COLA/FEMALE) “lung: tumor”; (Carcinogen: METHYLNITROSOUREA, 684-93-5, Doses [Carcinogen]: 20 MG/KG 2/WK FOR 4 WK, Doses [Promoter]: 0, 1% IN DIET BEGINNING POST CARCINOGEN TREATMENT AND CONTINUING FOR 32 WK (STUDY DURATION: 36 WK), Route [Carcinogen]: INTRAPERITONEAL, Route [Promoter]: ORAL, Species: RAT, Strain/Sex: F344/MALE) “urinary bladder: papilloma, carcinoma; thyroid: adenoma”. Also, the outcome is “liver: hepatocellular carcinoma” (Carcinogen: N,N-DIBUTYLNITROSAMINE, 924-16-3, Doses [Carcinogen]: 0.05% IN DRINKING WATER FOR 16 WK, Doses [Promoter]: 0, 0.7% IN DIET FOR 16 WK CONCOMITANT WITH CARCINOGEN TREATMENT (STUDY DURATION: 32 WK), Route [Carcinogen]: ORAL, Route [Promoter]: ORAL, Species: RAT, Strain/Sex: F344/MALE); “urinary bladder: papilloma, carcinoma” (Carcinogen: N-BUTYL-N-(4-HYDROXYBUTYL)NITROSAMINE, 3817-11-6, Doses [Carcinogen]: 0.05% IN DRINKING WATER FOR 4 WK, Doses [Promoter]: 0, 1% IN DIET FOR 32 WK (STUDY DURATION: 36 WK), Route [Carcinogen]: ORAL, Route [Promoter]: ORAL, Species: RAT, Strain/Sex: F344/MALE); “urinary bladder: carcinoma” (Carcinogen: N-BUTYL-N-(4-HYDROXYBUTYL)NITROSAMINE, Doses [Carcinogen]: 0.05% IN DRINKING WATER FOR 4 WK, Doses [Promoter]: 1% IN DIET FOR 32 WK AFTER INITIATION, Route [Carcinogen]: ORAL, Route [Promoter]: ORAL, Species: RAT, Strain/Sex: F344/MALE); “thyroid gland: adenoma; urinary bladder: papilloma, carcinoma” (Carcinogen: N-METHYL-N-NITROSOUREA, 684-93-5, Doses [Carcinogen]: 20 MG/KG 2/WK FOR 4 WK, Doses [Promoter]: 0, 1% IN DIET FOR 32 WK (STUDY DURATION: 36 WK), Route [Carcinogen]: INTRAPERITONEAL, Route [Promoter]: ORAL, Species: RAT, Strain/Sex: F344/MALE); “lung: tumor” (Carcinogen: URETHANE, 51-79-6, Doses [Carcinogen]: 1 MG/G BW ONCE, Doses [Promoter]: 0, 200 MG/G BW 1/WK FOR 6 WK BEGINNING POST CARCINOGEN TREATMENT (STUDY DURATION: 20 WK), Route [Carcinogen]: INJECTION, Route [Promoter]: INJECTION, Species: MOUSE, Strain/Sex: BALB/MALE,FEMALE); “lung: tumor” (Carcinogen: URETHANE, 51-79-6, Doses [Carcinogen]: 1 MG/G BW ONCE, Doses [Promoter]: 0, 200 MG/G BW 1/WK FOR 6 WK BEGINNING POST CARCINOGEN TREATMENT (STUDY DURATION: 20 WK), Route [Carcinogen]: INJECTION, Route [Promoter]: INJECTION, Species: MOUSE, Strain/Sex: GRS/MALE,FEMALE). In addition, the outcome is, setting by setting: (Carcinogen: URETHANE, 51-79-6, Doses [Carcinogen]: 1 MG/KG ONCE, Doses [Promoter]: 0, 200 MG/KG 1/WK FOR 6 WK (STUDY DURATION: 20 WK), Route [Carcinogen]: INTRAPERITONEAL, Route [Promoter]: INTRAPERITONEAL, Species: MOUSE, Strain/Sex: BALB/CBYJ/FEMALE) “lung: tumor”; (Carcinogen: URETHANE, Doses [Carcinogen]: 1000 MG/KG ONCE, Doses [Promoter]: 0.10, 0.25, 0.50% IN DIET FOR 8 WK BEGINNING 24 HR AFTER INITIATION, Doses [Promoter]: 0.10, 0.25, 0.50% IN DIET FOR 8 WK BEGINNING 24 HR AFTER INITIATION, Route [Carcinogen]: INTRAPERITONEAL, Route [Promoter]: ORAL, Species: MOUSE, Strain/Sex: STRAIN-A/MALE) “lung: tumor (nos)”; (Carcinogen: URETHANE, Doses [Carcinogen]: IP, Route [Carcinogen]: INTRAPERITONEAL, Route [Promoter]: INTRAPERITONEAL, Species: MOUSE, Strain/Sex: MALE) “lung”.

Consider `Oc1ccc(F)cc1`, for which the outcome (Carcinogen: 7,12-DIMETHYLBENZ(A)ANTHRACENE, Doses [Carcinogen]: TOP, Route [Carcinogen]: DERMAL, Route [Promoter]: DERMAL, Species: MOUSE, Strain/Sex: FEMALE) was “integumentary system (skin)”.
